Consider nine compounds from PubChem BioAssay (NCI).

Where “and” joins values, the source holds several entries; their conditions need not be identical. Equal values may be shown once.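 Step 1: Grow cells in 96-well plates. Step 2: Expose to compound for 48 hours at 5 concentrations. Step 3: Interpolate endpoints linearly; if unreached, use highest concentration. GI50 marks 50% less growth. TGI: concentration producing complete growth inhibition.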 Some results are limits rather than exact numbers.

Test systems include HOP-92 NSCLC; LOX IMVI melanoma; SK-MEL-2 melanoma; NCI-H23 lung; K-562 leukemia; UACC-62 melanoma; IGROV1 ovarian; OVCAR-5 ovarian; SK-OV-3 ovarian; TK-10 renal.
Common to all, as to assay: growth of human tumour cells (NCI), 48 h

For the compound `CC[C@H]1OC(=O)[C@H](C)[C@@H](O[C@H]2C[C@@](C)(OC)[C@@H](O)[C@H](C)O2)[C@H](C)[C@@H](O[C@@H]2O[C@H](C)C[C@H](N(C)C)[C@H]2O)[C@](C)(OC)C/C(C)=C2/O[C@@]1(C)C=C2C`, the GI50 was 1.57 µM with HOP-92 NSCLC; 1.61 µM in the test with LOX IMVI melanoma; 1.85 µM in the test with SK-MEL-2 melanoma; 1.96 µM with NCI-H23 lung; 1.56 µM with K-562 leukemia; 1.76 µM with UACC-62 melanoma. Besides, the GI50 in the test on IGROV1 ovarian was 1.59 µM; in the test on OVCAR-5 ovarian, 1.68 µM; in the test with SK-OV-3 ovarian, 1.91 µM; in the test on TK-10 renal it was 1.72 µM. Also, the TGI with HOP-92 NSCLC amounted to 3.82 µM; with LOX IMVI melanoma, 3.08 µM; in the test on SK-MEL-2 melanoma, 3.73 µM; in the test on NCI-H23 lung, 3.63 µM; in the test on K-562 leukemia it was 4.8 µM; with UACC-62 melanoma it was 3.18 µM. Besides, the TGI is 3.03 µM in the test on IGROV1 ovarian, 3.06 µM with OVCAR-5 ovarian, 3.75 µM with SK-OV-3 ovarian and 3.32 µM with TK-10 renal.
Consider `COc1ccc(/C=N/NS(=O)(=O)c2ccccc2)cc1`, for which the TGI in the test on HOP-92 NSCLC, in the test with LOX IMVI melanoma, with SK-MEL-2 melanoma, with NCI-H23 lung, in the test on K-562 leukemia and in the test with UACC-62 melanoma was greater than 100 µM each time. Also, the TGI in the test on IGROV1 ovarian, in the test on OVCAR-5 ovarian, in the test on SK-OV-3 ovarian and in the test on TK-10 renal was greater than 100 µM each time.
Take `O=c1cccc(Cl)[nH]1`: the TGI in the test with HOP-92 NSCLC, with LOX IMVI melanoma, in the test on SK-MEL-2 melanoma, with NCI-H23 lung, in the test with K-562 leukemia and in the test with UACC-62 melanoma was greater than 100 µM throughout. Further, the TGI with IGROV1 ovarian, in the test with OVCAR-5 ovarian, with SK-OV-3 ovarian and in the test on TK-10 renal was greater than 100 µM each time.
On to `COCC(C(=O)OC1C/C=C/C=C/C(=O)OC(C(C)C(O)C(C)CCC(OC(=O)C(C)N(C)C)C(C)C(OC(C)=O)C(C)/C=C/N(C)C=O)C/C=C/C(OC)CC(C)C/C=C(\C)C(OC)CCC(C)C(O)C1C)N(C)C` (stereo not drawn), for which the GI50 with HOP-92 NSCLC is 0.00145 µM; with LOX IMVI melanoma, less than 0.0001 µM; in the test on SK-MEL-2 melanoma, less than 0.0001 µM; in the test with NCI-H23 lung it was less than 0.0001 µM; with K-562 leukemia, less than 0.0001 µM; with UACC-62 melanoma it was less than 0.0001 µM. The GI50 is less than 0.0001 µM in the test on IGROV1 ovarian, less than 0.0001 µM in the test with OVCAR-5 ovarian, less than 0.0001 µM in the test on SK-OV-3 ovarian and 0.0158 µM in the test with TK-10 renal. Besides, the TGI is 0.024 µM with HOP-92 NSCLC; 0.00377 µM with LOX IMVI melanoma; 0.00774 µM with SK-MEL-2 melanoma; greater than 0.666 µM with NCI-H23 lung; 0.116 µM with K-562 leukemia; 0.000461 µM in the test with UACC-62 melanoma. The TGI in the test on IGROV1 ovarian worked out at 0.0144 µM; in the test with OVCAR-5 ovarian it was 0.162 µM; in the test on SK-OV-3 ovarian it was 0.0164 µM; in the test with TK-10 renal it was 0.0877 µM.
On to `CCCCC1(C(NC(=O)c2ccccc2Cl)c2ccncc2)C(=O)N(c2ccccc2)N(c2ccccc2)C1=O` (stereo not drawn), for which the TGI in the test on HOP-92 NSCLC, with LOX IMVI melanoma, in the test on SK-MEL-2 melanoma, in the test with NCI-H23 lung, in the test with K-562 leukemia and in the test with UACC-62 melanoma was greater than 100 µM in each case. Besides, the TGI with IGROV1 ovarian, in the test with OVCAR-5 ovarian, in the test with SK-OV-3 ovarian and in the test on TK-10 renal was greater than 100 µM each time.
Consider `COc1cc2ncnc(Oc3cccc(NC(=O)Nc4cc(C(C)(C)C(F)(F)F)on4)c3)c2cc1OC`, for which the GI50 in the test on HOP-92 NSCLC is 0.571 µM and 1.13 µM; in the test with LOX IMVI melanoma, 0.319 µM and 0.421 µM; in the test on SK-MEL-2 melanoma it was 0.443 µM and 0.565 µM; in the test with NCI-H23 lung, 1.28 µM and 1.43 µM; in the test on K-562 leukemia it was 0.0153 µM and 0.0146 µM; with UACC-62 melanoma, 0.0628 µM and 0.0978 µM. Besides, the GI50 with IGROV1 ovarian was 0.565 µM and 0.634 µM; in the test on OVCAR-5 ovarian, 1.1 µM and 1.01 µM; in the test with SK-OV-3 ovarian, 0.612 µM and 0.962 µM; in the test on TK-10 renal, 0.948 µM and 0.82 µM. Besides, the TGI was 3.41 µM and 5.29 µM in the test on HOP-92 NSCLC; 1.54 µM and 1.81 µM in the test on LOX IMVI melanoma; 2.26 µM and 3.06 µM in the test on SK-MEL-2 melanoma; 11.7 µM and > 10 µM in the test on NCI-H23 lung; 25.9 µM and > 10 µM with K-562 leukemia; 1.59 µM and 1.34 µM in the test on UACC-62 melanoma. Besides, the TGI in the test with IGROV1 ovarian was 4.61 µM and 3.69 µM; in the test on OVCAR-5 ovarian, 10.5 µM and > 10 µM; in the test with SK-OV-3 ovarian, 3.52 µM and 4.82 µM; in the test with TK-10 renal, 4.67 µM and 4.32 µM.
Turning to `COc1cc2cc(Oc3cccc(NC(=O)Nc4cc(C(F)(F)F)cc(C(F)(F)F)c4)c3)c(C)nc2cc1OC`, the GI50 was 1.12 µM in the test on HOP-92 NSCLC; 1.44 µM with LOX IMVI melanoma; 1.82 µM in the test with SK-MEL-2 melanoma; 0.639 µM in the test on NCI-H23 lung; 0.573 µM in the test on K-562 leukemia; 0.561 µM in the test on UACC-62 melanoma. Further, the GI50 in the test on IGROV1 ovarian was 0.509 µM; with OVCAR-5 ovarian it was 1.93 µM; in the test on SK-OV-3 ovarian it was 1.71 µM; with TK-10 renal, 2.32 µM. Also, the TGI turned out to be 3.9 µM with HOP-92 NSCLC; 2.96 µM with LOX IMVI melanoma; 4.24 µM in the test with SK-MEL-2 melanoma; 3.55 µM in the test on NCI-H23 lung; 2.53 µM with K-562 leukemia; 2.09 µM with UACC-62 melanoma. For the same compound, the TGI in the test with IGROV1 ovarian turned out to be 2.3 µM; in the test with OVCAR-5 ovarian it was 4.14 µM; in the test on SK-OV-3 ovarian it was 3.47 µM; with TK-10 renal, 9.18 µM.
Take `NCCCN=c1ccc2c3c1c(O)c1c(O)ccc(=O)c1c3[nH]n2CCNCCO`: the GI50 with HOP-92 NSCLC is 1.84 µM and 0.409 µM; with LOX IMVI melanoma, 1.53 µM; in the test on SK-MEL-2 melanoma it was 3.28 µM and 1.08 µM; with NCI-H23 lung it was 1.06 µM; in the test on K-562 leukemia it was 1.61 µM and 1.64 µM; in the test on UACC-62 melanoma, 0.792 µM. Further, the GI50 with SK-OV-3 ovarian was 1.51 µM; in the test on TK-10 renal it was 6.59 µM. Moreover, the TGI was 10.3 µM and 2.34 µM in the test on HOP-92 NSCLC; 5.8 µM with LOX IMVI melanoma; 8.18 µM and 4.08 µM in the test on SK-MEL-2 melanoma; 5.66 µM and 8.54 µM in the test with NCI-H23 lung; 24.2 µM and 27.2 µM with K-562 leukemia; 5.66 µM and 6.48 µM in the test with UACC-62 melanoma. The TGI in the test on IGROV1 ovarian was 15.4 µM and 129 µM; with OVCAR-5 ovarian it was 17.4 µM and 17.2 µM; in the test with SK-OV-3 ovarian, 16.2 µM and 55.7 µM; with TK-10 renal it was 21.3 µM and 77.7 µM.
Turning to `CCOC1Oc2ccc(C)cc2C(=O)/C1=C\Nc1ccc(S(N)(=O)=O)cc1` (stereo not drawn), the GI50 in the test with HOP-92 NSCLC is 8.9 µM; in the test on LOX IMVI melanoma, 13.7 µM; in the test with SK-MEL-2 melanoma, 24.3 µM; in the test with NCI-H23 lung, 2.92 µM; in the test on K-562 leukemia, 15.2 µM; in the test with UACC-62 melanoma it was 12.5 µM. Also, the GI50 in the test with IGROV1 ovarian was 15 µM; in the test on OVCAR-5 ovarian it was 0.0219 µM; in the test on SK-OV-3 ovarian it was 17.7 µM; with TK-10 renal it was 15.7 µM. The TGI in the test on HOP-92 NSCLC is 29.6 µM; with LOX IMVI melanoma it was greater than 50 µM; with SK-MEL-2 melanoma, greater than 50 µM; with NCI-H23 lung, 12.4 µM; with K-562 leukemia, greater than 50 µM; in the test on UACC-62 melanoma, 38.2 µM. For the same compound, the TGI in the test with IGROV1 ovarian was greater than 50 µM; in the test with OVCAR-5 ovarian it was 14.1 µM; in the test on SK-OV-3 ovarian, greater than 50 µM; with TK-10 renal, greater than 50 µM.
